Results on 7 compounds are retold here after patent publication US20060052346A1, “Nucleoside phosphonate derivatives useful in the treatment of HIV infections” (priority 2004, published 2006).

Each structure is given as a SMILES string. Like-named read-outs stand apart in the source and are kept apart here.

The experiment relates to HIV-1 (NL4-3). The experiment is described as follows: Plaque reduction assay (drug susceptibility) in HT4-6C cells infected with HIV-1 NL4-3. The format is cell-based. Conditions: for IC50: Human immunodeficiency virus 1, NL43, 72 h. The text has this: Measurement of Inhibition Effect Against Human Immunodeficiency Virus (HIV)
The compounds of formula 1 protect cells from the cytopathic effects of HIV infection.
Cells. The T-lymphoblastoid cell line CEM was used in this study to propagate HIV. The cells were maintained in RPMI 1640 growth medium supplemented with 10% fetal bovine serum plus antibiotics. The CD4-expressing cell line used for HIV plaque assays, HT4-6C, was made by transforming HeLa cells with the human CD4 gene as described in Chesebro and Wehrly, J. Virology, 62(10), 3779-3788 (1988). These cells were grown in Dulbecco modified eagle medium (DMEM) containing 10% fetal bovine serum plus antibiotics.
Virus propagation. The laboratory strain of HIV-1 (NL4-3) was grown in CEM cells. Virus stocks were prepared from cleared lysates of concentrated infected cells. At peak cytopathic effect (generally 5 days post-infection) culture supernatants were harvested and stored at −80° C. Viral infectivity titers were determined in threefold endpoint dilution assays conducted in CEM cells (six wells per dilution). The 50% tissue culture infective dose (TCID50) was calculated using the Reed and Muench equation.
Plaque titration using HT4-6C. Cells are seeded into 24-well multiwells at 5×10^4 cells per well and incubated overnight at 37° C. in growth medium (DMEM containing 10% fetal bovine serum plus antibiotics). Monolayers were infected with 10-fold dilutions of cell-free NL4-3 virus in 0.2 ml of DMEM and were incubated for 1 h at 37° C. to allow virus adsorption. Following this, 0.8 ml of DMEM containing 5% fetal bovine serum plus antibiotics was added to each well, and the cultures were incubated at 37° C. for 2 to 3 days. The monolayers were fixed with a 10% formaldehyde solution in phosphate-buffered saline and stained with 0.25% crystal violet in order to visualize virus plaques. Individual foci of multinucleated giant cells (plaques) are obvious when this staining procedure was used. Virus titers were evaluated from plaque numbers and were expressed as PFU per milliliter.
Drug susceptibility assays. Plaque reduction assays were performed by infecting monolayers of HT4-6C cells with 100 to 300 PFU of virus per well in 24-well microdilution plates as described above. Half-log concentrations of inhibitor were added to the culture medium (DMEM containing 5% fetal bovine serum plus antibiotics), and cultures were incubated for 3 days at 37° C. prior to fixation and staining as described above. ID50s were derived from plots of percentage of plaque reduction versus inhibitor concentration. See Larder et al., Antimicrob Agents Chemother, 34(3), 436-41 (March 1990).
A general note: Plaques are areas of infected cells; plaque reduction assays count them against a control.

Where [1] appears, read: plaque reduction, HT4-6C cell monolayers, 100 to 300 PFU of virus per well, 3 days at 37° C., read-out: ID50 (the source's name).
[2] abbreviates: plaque reduction, HT4-6C cell monolayers, 100 to 300 PFU of virus per well, 3 days at 37° C.

For the compound `Nc1ncc2ncn(CC3(OCP(=O)(O)O)CC3)c2n1` [Compound 9, ({1-[(2-amino-9H-purin-9-yl)methyl]cyclopropyl}oxy)methylphosphonic acid], the IC50 under setting [1] is more than 100 µM. For the same compound, under setting [2], the “ID25” value is less than 10 µM.
As for `CC(C)(C)C(=O)OCOP(=O)(COC1(Cn2cnc3cnc(N)nc32)CC1)OCOC(=O)C(C)(C)C` [Compound 10, 3-[({1-[(2-amino-9H-purin-9-yl)methyl]cyclopropyl}oxy)methyl]-8,8-dimethyl-3,7-dioxo-2,4,6-trioxa-3λ^5-phosphanon-1-yl pivalate], under “read-out: ID50 (μM)”, the IC50 was less than 10 µM. In addition, the “ID25” value under setting [2] was less than 0.1 µM.
Take `Nc1nc(O)c2ncn(CC3(OCP(=O)(O)O)CC3)c2n1` [Compound 5, ({1-[(2-amino-6-hydroxy-9H-purin-9-yl)methyl]cyclopropyl}oxy)methylphosphonic acid]: the IC50 under setting [1] was approximately 100 µM. Besides, the “ID25” value under setting [2] was less than 10 µM.
For `CC1CC1(Cn1cnc2c(N)ncnc21)OCP(=O)(O)O` (centres unmarked) [Compound 103, ({1-[(6-amino-9H-purin-9-yl)methyl]-2-methylcyclopropyl}oxy)methylphosphonic acid], in that order: more than 100 µM and less than 10 µM.
For `CC1CC1(Cn1cnc2cnc(N)nc21)OCP(=O)(O)O` (centres unmarked) [Compound 98, ({1-[(2-amino-9H-purin-9-yl)methyl]-2-methylcyclopropyl}oxy)methylphosphonic acid], in that order: more than 100 µM and less than 200 µM.
On the same counts, the results for `CC1CC1(Cn1cnc2cnc(N)nc21)OCP(=O)(OCOC(=O)C(C)(C)C)OCOC(=O)C(C)(C)C` (centres unmarked) [Compound 106, 3-[({1-[(2-amino-9H-purin-9-yl)methyl]-2-methylcyclopropyl}oxy)methyl]-8,8-dimethyl-3,7-dioxo-2,4,6-trioxa-3λ^5-phosphanon-1-yl pivalate] are less than 100 µM and less than 1.0 µM.
Regarding `CC(C)(C)C(=O)OCOP(=O)(COC1(Cn2cnc3c(O)nc(N)nc32)CC1)OCOC(=O)C(C)(C)C` [Compound 6, 3-[({1-[(2-amino-6-hydroxy-9H-purin-9-yl)methyl]cyclopropyl}oxy)methyl]-8,8-dimethyl-3,7-dioxo-2,4,6-trioxa-3λ^5-phosphanon-1-yl pivalate], under setting [1], the IC50 is less than 10 µM. Besides, under setting [2], the “ID25” value was less than 0.1 µM.
